Like-named read-outs stand apart in the source and are kept apart here.
What was measured:
[1] = system: cardiomyocyte multicellular construct (human iPS cell derived cardiomyocytes); assay: Example 7: calcium imaging evaluation of response of cardiomyocyte multicellular construct against compound; type: cell-based; details: seventh day of the culture; for Calcium ion signal waveform compared with before the addition: 1000 nM, cumulative addition, 10 minutes after addition; for Beating rate compared with before the addition: cumulative addition 1 to 1000 nM
Method: Cells were seeded and cultured in the same manner as in Example 6, except that the cells were seeded such that the seeding amount per unit area of the scaffold was 6000 cells/mm^2.
On the sixth day of the culture, the cardiomyocyte multicellular construct was placed such that a surface containing more cells faced the bottom surface of a culture dish (IWAKI Multiwell Plate, Non-treated surface for suspension cell culture 6. Well), and was then left to stand for a day. On the seventh day of the culture, a calcium indicator (EarlyTox Cardiotoxicity Kit, Molecular Devices LLC) was added to the culture medium at a volume ratio of 25/100 to fluorescently stain calcium ions in the cardiomyocytes.
The fluorescence intensities in the entire 10-fold magnified visual fields of the obtained images were plotted versus time using an analysis software CellPathfinder, Yokogawa Electric Corp.), and thus signal waveforms of calcium ions in the cardiomyocytes were obtained. Verapamil is a Ca channel antagonist having an Ikr inhibitory effect.

[2] = system: cardiomyocyte multicellular construct (human iPS cell derived cardiomyocytes); assay: Example 7: contractile force and contraction-relaxation rate of cardiomyocyte multicellular construct (MUSCLEMOTION); type: cell-based; details: 1000 nM, seventh day of the culture
[3] = system: cardiomyocyte multicellular construct (human iPS cell derived cardiomyocytes); assay: Example 8: contractile force of cardiomyocyte multicellular construct, ratio of specimens with halved contractile force; details: alone or with azithromycin fixed to 3 μM; for Ratio of specimens whose contractile force decreased to half of that before the addition, Dose 1 (%): Dose 1 of Table 5: azithromycin 1 μM, chloroquine or hydroxychloroquine 0.3 μM; for Ratio of specimens whose contractile force decreased to half of that before the addition, Dose 2 (%): Dose 2 of Table 5: azithromycin 3 μM, chloroquine or hydroxychloroquine 1 μM; for Ratio of specimens whose contractile force decreased to half of that before the addition, Dose 3 (%): Dose 3 of Table 5: azithromycin 10 μM, chloroquine or hydroxychloroquine 3 μM
[4] = system: cardiomyocyte multicellular construct (human iPS cell derived cardiomyocytes); assay: Example 8: calcium imaging, ratio of specimens with arrhythmia waveform; details: for Ratio of specimens that exhibited the calcium ion signal waveform corresponding to arrhythmia, Dose 1 (%): Dose 1 of Table 5: azithromycin 1 μM, chloroquine or hydroxychloroquine 0.3 μM; for Ratio of specimens that exhibited the calcium ion signal waveform corresponding to arrhythmia, Dose 1 (%) / Ratio of specimens that exhibited the calcium ion signal waveform corresponding to arrhythmia, Dose 2 (%) / Ratio of specimens that exhibited the calcium ion signal waveform corresponding to arrhythmia, Dose 3 (%) / Ratio of specimens that exhibited the calcium ion signal waveform corresponding to arrhythmia, Dose 4 (%): alone or with azithromycin fixed to 3 μM; for Ratio of specimens that exhibited the calcium ion signal waveform corresponding to arrhythmia, Dose 2 (%): Dose 2 of Table 5: azithromycin 3 μM, chloroquine or hydroxychloroquine 1 μM; for Ratio of specimens that exhibited the calcium ion signal waveform corresponding to arrhythmia, Dose 3 (%): Dose 3 of Table 5: azithromycin 10 μM, chloroquine or hydroxychloroquine 3 μM; for Ratio of specimens that exhibited the calcium ion signal waveform corresponding to arrhythmia, Dose 4 (%): Dose 4 of Table 5: chloroquine or hydroxychloroquine 10 μM, azithromycin alone: no Dose 4 in Table 5
[5] = system: cardiomyocyte multicellular construct (human iPS cell derived cardiomyocytes)
[6] = system: human iPS cell derived cardiomyocyte multicellular construct; assay: Example 5: calcium ion imaging of multicellular construct, response against isoproterenol; type: cell-based; details: 100 nM, 5 minutes after addition, fourth day of the culture; 60 bpm before the addition
Method: Cells were seeded in the same manner as in Example 4, and a liquid culture medium was added 4 hours later to start cell culturing. On the fourth day of the culture, a calcium indicator (EarlyTox Cardiotoxicity Kit, Molecular Devices LLC.) was added to the culture medium at a volume ratio of 5/100 to fluorescently stain calcium ions in the cardiomyocytes.
Videos were captured at 20 FPS using a confocal imaging confocal imaging system (CellVoyager CQ1, Yokogawa Electric Corp.). Fluorescent areas in the obtained videos were recognized using an analysis software CellPathfinder, Yokogawa Electric Corp.), and signal waveforms of calcium ions in the cardiomyocytes were obtained by plotting the fluorescence intensities versus time.

Row | SMILES | Calcium ion signal waveform compared with before the addition [1] | Beating rate compared with before the addition [1] | Contractile force compared with before the addition [2] | Contraction-relaxation rate compared with before the addition [2] | Ratio of specimens whose contractile force decreased to half of that before the addition, Dose 1 (%) [3] | Ratio of specimens whose contractile force decreased to half of that before the addition, Dose 2 (%) [3] | Ratio of specimens whose contractile force decreased to half of that before the addition, Dose 3 (%) [3] | Ratio of specimens that exhibited the calcium ion signal waveform corresponding to arrhythmia, Dose 1 (%) [4] | Ratio of specimens that exhibited the calcium ion signal waveform corresponding to arrhythmia, Dose 2 (%) [4] | Ratio of specimens that exhibited the calcium ion signal waveform corresponding to arrhythmia, Dose 3 (%) [4] | Ratio of specimens that exhibited the calcium ion signal waveform corresponding to arrhythmia, Dose 4 (%) [4] | further results
1 | Cc1cccc(CCN2CCC(C(=O)c3ccc(NS(C)(=O)=O)cc3)CC2)n1 [Example E-4031] | became flattened | decreased | decreased | decreased |  |  |  |  |  |  |  | 
2 | CC[C@H]1OC(=O)[C@H](C)[C@@H](O[C@H]2C[C@@](C)(OC)[C@@H](O)[C@H](C)O2)[C@H](C)[C@@H](O[C@@H]2O[C@H](C)C[C@H](N(C)C)[C@H]2O)[C@](C)(O)C[C@@H](C)CN(C)[C@H](C)[C@@H](O)[C@]1(C)O [Azithromycin, azithromycin] |  |  |  |  | 0% | 0% | 100% | 0% | 0% | 0% | 0% | 
3 | COc1ccc(CCN(C)CCCC(C#N)(c2ccc(OC)c(OC)c2)C(C)C)cc1OC (stereo not drawn) [Verapamil, verapamil] | became smaller | increased | decreased | decreased |  |  |  |  |  |  |  | 
4 | CCN(CC)CCCC(C)Nc1ccnc2cc(Cl)ccc12 (stereo not drawn) [Chloroquine, chloroquine] |  |  |  |  |  |  |  |  |  |  |  | Risk of arrhythmia (conclusion from FIG. 20 and Table 6) [5]: increase the risk of arrhythmia
5 | CC(C)NCC(O)c1ccc(O)c(O)c1 (stereo not drawn) [Isoproterenol, isoproterenol] | became sharper | increased | increased | increased |  |  |  |  |  |  |  | Beating rate after the addition [6]: 76 bpm
6 | CCN(CCO)CCCC(C)Nc1ccnc2cc(Cl)ccc12 (stereo not drawn) [Hydroxychloroquine, hydroxychloroquine] |  |  |  |  | 0% | 0% | 20% | 0% | 0% | 20% | 80% | Ratio of specimens whose contractile force decreased to half of that before the addition, Dose 4 (%) ([3]; Dose 4 of Table 5: chloroquine or hydroxychloroquine 10 μM): 100%; Risk of arrhythmia (conclusion from FIG. 20 and Table 6) ([4]; concentrations of Table 5): increase the risk of arrhythmia
